Experimental data reported in patent publication US12233064B1, “Antarctic tunicate Synoicum species-derived alkaloids and methods of treatment” (University of South Florida, priority 2019, dated 2025).

What was measured:
zebrafish embryos = test: Developmental (phenotypic) zebrafish bioassay; format: in vivo, Danio rerio; details: for Final C tested (concentration most representative of the phenotype) / MTC (Maximum Tolerated Concentration) / concentration at which interesting phenotype demonstrated: zebrafish embryos; for Final C tested (concentration most representative of the phenotype): 24 h post fertilization; for MTC (Maximum Tolerated Concentration): compound added 4 h, end 24 h post fertilization; for phenotype of treated embryos compared to control: 24h post-fertilization, FIG. 16
Experimental: Wildtype Danio rerio fish were used for the assay. Once the zebrafish eggs were collected, they were placed in fresh media along with methylene blue, to deter fungal growth. The embryos were sorted and placed in a 96-well plate and the volume was standardized. For the purpose of this screening it was determined that the optimal point to add the compounds was 4 hours post fertilization and the ending point of the assay was 24 hours post fertilization. The delay in growth and the dysmorphologies were monitored and assessed.
A developmental zebrafish assay was utilized to test the activity of the extract, the subsequent fractions, and the isolated compounds. […] The Maximum Tolerated Concentration (MTC) was determined for each compound, alongside the minimum active concentration for each compound. The final tested concentration was determined as the one most representative of the phenotype.

Leishmaniasis = Leishmaniasis assay
Plasmodium falciparum = details: synthetic Meridianin A; cited from earlier work
[1] = test system: A549 (Human lung adenocarcinoma epithelial cell line); details: synthetic Meridianin A; cited from earlier work

Row | Structure (SMILES) | Final C tested (concentration most representative of the phenotype) (zebrafish embryos) [µM] | MTC (Maximum Tolerated Concentration) (zebrafish embryos) [µM] | result of Leishmaniasis assay (Leishmaniasis) | growth of P. falciparum (Plasmodium falciparum) | cytotoxicity to A549 [1] | phenotype of treated embryos compared to control (zebrafish embryos) | concentration at which interesting phenotype demonstrated (zebrafish embryos) [µM]
1 | Nc1nccc(C2(O)C(=O)Nc3ccccc32)n1 (stereo not shown) [Australindolone A] | 300 | 1000 |  |  |  |  | 
2 | Nc1nccc(-c2c[nH]c3cccc(O)c23)n1 [Meridianin A] | 30 | 100 | notable | inhibit the growth of P. falciparum | cytotoxic to A549 |  | 
3 | Nc1nccc(-c2c[nH]c3cc(Br)cc(O)c23)n1 [Meridianin B] | 100 | 300 |  |  |  |  | 
4 | Nc1nccc(-c2c[nH]c3ccc(Br)cc23)n1 [Meridianin C] | 3 | 10 |  |  |  | truncation of the anterior-posterior axis | 3
5 | Nc1nccc(-c2c[nH]c3cc(Br)ccc23)n1 [Meridianin D] | 65 | 100 |  |  |  |  | 
6 | Nc1nccc(-c2c[nH]c3c(Br)ccc(O)c23)n1 [Meridianin E] | 10 | 100 |  |  |  |  | 
7 | Nc1nccc(-c2c[nH]c3cc(Br)c(Br)cc23)n1 [Meridianin F] | 2 | 10 |  |  |  | truncation of the anterior-posterior axis | 2
8 | Nc1nccc(-c2c[nH]c3ccccc23)n1 [Meridianin G] | 100 | 300 |  |  |  |  | 
9 | Nc1nccc(-c2c[nH]c3c(Br)cc(Br)c(O)c23)n1 [Meridianin H] | 60 | 100 |  |  |  |  | 
